Article PMC4780864, “Family-wide Structural Analysis of Human Numb-Associated Protein Kinases” (Structure(London, England:1993), 2016)

Columns and labels:
Test in all cases: biochemical
BIKE = biological target: T1, BIKE (Homo sapiens, UniProt Q9NSY1); design: Thermal shift assay (DSF, SYPRO Orange), 2 uM kinase domain, mean delta Tm of triplicates versus DMSO; conditions: read-out: BIKE
T1 construct: gene BMP2K; catalytic domain-containing construct
Protocol: (§1) All measurements were performed in triplicate and mean values were reported for all compounds (Table S1). […] However, NAKs are often omitted from selectivity panels, including commercial screens.

GAK = biological target: T2, GAK (Homo sapiens, UniProt O14976); design: Thermal shift assay (DSF, SYPRO Orange), 2 uM kinase domain, mean delta Tm of triplicates versus DMSO; conditions: read-out: GAK
T2 construct: catalytic domain-containing construct
T2 sequence (O14976 1-1311): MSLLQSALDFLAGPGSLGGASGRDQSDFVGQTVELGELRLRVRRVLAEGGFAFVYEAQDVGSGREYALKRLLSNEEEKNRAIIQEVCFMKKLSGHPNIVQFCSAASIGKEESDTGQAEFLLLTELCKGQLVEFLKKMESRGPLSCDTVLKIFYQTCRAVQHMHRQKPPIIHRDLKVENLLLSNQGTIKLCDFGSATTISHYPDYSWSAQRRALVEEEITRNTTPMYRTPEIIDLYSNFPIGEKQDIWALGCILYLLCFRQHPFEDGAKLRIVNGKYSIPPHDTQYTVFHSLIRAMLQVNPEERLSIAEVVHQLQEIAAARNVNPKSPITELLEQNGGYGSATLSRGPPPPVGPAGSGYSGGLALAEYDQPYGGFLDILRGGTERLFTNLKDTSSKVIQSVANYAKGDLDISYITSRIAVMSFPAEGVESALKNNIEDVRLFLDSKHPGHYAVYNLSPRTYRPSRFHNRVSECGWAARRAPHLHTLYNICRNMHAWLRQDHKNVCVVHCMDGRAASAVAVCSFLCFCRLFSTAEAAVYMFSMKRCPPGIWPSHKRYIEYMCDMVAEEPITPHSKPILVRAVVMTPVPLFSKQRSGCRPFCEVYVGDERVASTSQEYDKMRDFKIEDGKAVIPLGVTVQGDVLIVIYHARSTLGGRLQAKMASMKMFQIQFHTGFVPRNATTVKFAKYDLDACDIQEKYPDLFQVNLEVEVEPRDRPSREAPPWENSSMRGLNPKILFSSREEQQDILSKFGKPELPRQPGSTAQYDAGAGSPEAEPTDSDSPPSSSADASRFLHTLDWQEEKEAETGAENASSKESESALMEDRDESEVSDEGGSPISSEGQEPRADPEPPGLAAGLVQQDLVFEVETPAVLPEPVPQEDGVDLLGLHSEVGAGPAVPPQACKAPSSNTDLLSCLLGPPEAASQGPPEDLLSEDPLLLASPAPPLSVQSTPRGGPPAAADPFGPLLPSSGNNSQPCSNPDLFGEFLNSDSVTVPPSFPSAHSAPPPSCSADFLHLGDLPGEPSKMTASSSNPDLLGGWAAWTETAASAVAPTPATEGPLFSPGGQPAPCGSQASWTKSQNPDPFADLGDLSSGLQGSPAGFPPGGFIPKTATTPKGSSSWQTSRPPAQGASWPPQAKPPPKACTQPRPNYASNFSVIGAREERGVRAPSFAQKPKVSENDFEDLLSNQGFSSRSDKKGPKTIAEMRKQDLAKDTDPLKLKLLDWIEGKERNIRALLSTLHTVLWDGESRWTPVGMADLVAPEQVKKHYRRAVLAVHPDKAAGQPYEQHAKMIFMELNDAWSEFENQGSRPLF
Protocol: as §1

MPSK1 = biological target: T3, MPSK1 (Homo sapiens, UniProt O75716); design: Thermal shift assay (DSF, SYPRO Orange), 2 uM kinase domain, mean delta Tm of triplicates versus DMSO; conditions: read-out: MPSK1
T3 construct: gene STK16; catalytic domain-containing construct
T3 sequence (O75716 whole entry, the tested form may be a part): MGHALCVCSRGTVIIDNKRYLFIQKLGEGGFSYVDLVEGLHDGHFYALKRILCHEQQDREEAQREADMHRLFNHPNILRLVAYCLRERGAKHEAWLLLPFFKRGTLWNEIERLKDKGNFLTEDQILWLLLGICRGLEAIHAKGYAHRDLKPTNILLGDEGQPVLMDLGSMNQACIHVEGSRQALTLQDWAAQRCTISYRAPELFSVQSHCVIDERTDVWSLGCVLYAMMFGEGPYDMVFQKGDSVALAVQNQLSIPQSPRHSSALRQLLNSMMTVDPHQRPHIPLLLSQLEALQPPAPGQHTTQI
Protocol: as §1

AAK1 = AAK1 (Homo sapiens, UniProt Q2M2I8); design: kinase domain; Thermal shift assay (DSF, SYPRO Orange), 2 uM kinase domain, mean delta Tm of triplicates versus DMSO; conditions: read-out: AAK1
Chain of AAK1 (Q2M2I8 27-365 limits assumed): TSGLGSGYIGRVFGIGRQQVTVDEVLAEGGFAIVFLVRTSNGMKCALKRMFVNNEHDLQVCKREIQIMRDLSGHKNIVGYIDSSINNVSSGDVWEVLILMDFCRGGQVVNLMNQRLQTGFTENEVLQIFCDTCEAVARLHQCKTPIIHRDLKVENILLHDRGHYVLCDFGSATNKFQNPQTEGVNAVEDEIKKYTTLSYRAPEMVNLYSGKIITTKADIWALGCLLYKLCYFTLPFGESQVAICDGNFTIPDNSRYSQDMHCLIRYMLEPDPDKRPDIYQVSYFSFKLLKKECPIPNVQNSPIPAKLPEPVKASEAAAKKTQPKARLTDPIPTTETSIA
Protocol: as §1

T1 sequence (Q9NSY1 whole entry, the tested form may be a part): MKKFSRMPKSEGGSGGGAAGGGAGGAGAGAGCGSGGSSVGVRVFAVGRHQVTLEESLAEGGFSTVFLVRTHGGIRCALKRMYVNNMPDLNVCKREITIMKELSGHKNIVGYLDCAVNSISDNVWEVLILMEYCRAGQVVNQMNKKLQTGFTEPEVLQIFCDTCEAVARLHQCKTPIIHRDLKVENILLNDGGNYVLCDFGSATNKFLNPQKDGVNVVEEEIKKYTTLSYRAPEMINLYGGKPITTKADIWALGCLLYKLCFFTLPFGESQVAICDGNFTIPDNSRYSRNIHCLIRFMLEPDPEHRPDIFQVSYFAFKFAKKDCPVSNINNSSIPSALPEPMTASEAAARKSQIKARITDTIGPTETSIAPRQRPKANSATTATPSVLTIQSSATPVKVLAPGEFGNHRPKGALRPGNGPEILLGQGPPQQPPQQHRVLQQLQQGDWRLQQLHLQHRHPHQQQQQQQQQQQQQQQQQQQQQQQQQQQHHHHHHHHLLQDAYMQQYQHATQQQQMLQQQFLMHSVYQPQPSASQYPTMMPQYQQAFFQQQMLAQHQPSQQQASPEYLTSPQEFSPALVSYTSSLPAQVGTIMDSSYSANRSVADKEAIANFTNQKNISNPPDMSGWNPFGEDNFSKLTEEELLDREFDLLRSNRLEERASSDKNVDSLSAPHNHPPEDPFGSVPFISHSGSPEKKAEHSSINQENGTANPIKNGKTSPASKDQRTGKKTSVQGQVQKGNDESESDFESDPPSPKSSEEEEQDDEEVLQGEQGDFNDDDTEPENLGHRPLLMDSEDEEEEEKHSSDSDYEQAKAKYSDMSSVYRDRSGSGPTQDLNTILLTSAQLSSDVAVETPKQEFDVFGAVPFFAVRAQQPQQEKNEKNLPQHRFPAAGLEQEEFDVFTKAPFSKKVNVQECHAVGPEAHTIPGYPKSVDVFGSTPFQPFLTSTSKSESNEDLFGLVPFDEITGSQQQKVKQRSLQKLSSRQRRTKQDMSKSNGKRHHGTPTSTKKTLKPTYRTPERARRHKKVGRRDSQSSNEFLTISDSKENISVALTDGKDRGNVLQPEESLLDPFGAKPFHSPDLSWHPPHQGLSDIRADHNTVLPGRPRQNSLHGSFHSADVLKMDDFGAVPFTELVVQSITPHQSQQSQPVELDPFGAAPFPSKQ

SMILES	ΔTm at 12.5 µM (BIKE) [°C]	ΔTm at 12.5 µM (GAK) [°C]	ΔTm at 12.5 µM (MPSK1) [°C]	ΔTm at 12.5 µM (AAK1) [°C]
O=C(Cc1ccc(-c2ccc(OCCN3CCOCC3)cc2)cn1)NCc1ccccc1 [KX2-391]	1.76	0.46	0.373	0.0867
C[C@@H](Oc1ccc2[nH]nc(/C=C/c3cnn(CCO)c3)c2c1)c1c(Cl)cncc1Cl [LY2874455]	15.2	5.81	10.3	11.6
CS(=O)(=O)CCNCc1ccc(-c2ccc3ncnc(Nc4ccc(OCc5cccc(F)c5)c(Cl)c4)c3c2)o1 [Lapatinib]	1.13	1.67	1.16	1.7
COc1cc2nccc(Oc3ccc(NC(=O)NC4CC4)c(Cl)c3)c2cc1C(N)=O [Lenvatinib]	2.49	2.03	1.5	2.07
C[C@]12O[C@H](C[C@]1(O)CO)n1c3ccccc3c3c4c(c5c6ccccc6n2c5c31)CNC4=O [Lestaurtinib]	16.5	10.8	11.1	13.6
Cc1ccc(F)c(NC(=O)Nc2ccc(-c3cccc4[nH]nc(N)c34)cc2)c1 [Linifanib]	5.72	2.49	5.04	1.96
C[C@]1(O)C[C@@H](c2nc(-c3ccc4ccc(-c5ccccc5)nc4c3)c3c(N)nccn32)C1 [Linsitinib]	0.903	-0.6	0.73	0.277
Cn1cnc2c(F)c(Nc3ccc(Br)cc3F)c(C(=O)NOCCO)cc21 [MEK-162]	0.367	-0.617	0.6	0.197
C=CCn1c(=O)c2cnc(Nc3ccc(N4CCN(C)CC4)cc3)nc2n1-c1cccc(C(C)(C)O)n1 [MK-1775]	4.38	5.08	1.18	4.03
NC1(c2ccc(-c3nc4ccn5c(=O)[nH]nc5c4cc3-c3ccccc3)cc2)CCC1 [MK-2206]	0.637	-0.83	1.1	1.1
Cc1ccc(NC(=O)c2ccc(CN3CCN(C)CC3)cc2)cc1Nc1nc(-c2cccnc2)cs1 [Masitinib]	0.833	1.98	0.99	0.547
CO[C@@H]1[C@H](N(C)C(=O)c2ccccc2)C[C@H]2O[C@]1(C)n1c3ccccc3c3c4c(c5c6ccccc6n2c5c31)C(=O)NC4 [Midostaurin]	14.9	6.33	10.4	12.8
CNC(=O)c1nn(C)c2c1C(C)(C)Cc1cnc(Nc3ccc(N4CCN(C)CC4)cc3)nc1-2 [Milciclib]	7.73	10.6	10.1	5.61
N#CCNC(=O)c1ccc(-c2ccnc(Nc3ccc(N4CCOCC4)cc3)n2)cc1 [Momelotinib]	15	7.03	11.1	14.6
CC1(C)CNc2cc(NC(=O)c3cccnc3NCc3ccncc3)ccc21 [Motesanib]	0.3	0.437	0.7	0.467
CCN1CCN(c2ccc(Nc3cc(N(C)C(=O)Nc4c(Cl)c(OC)cc(OC)c4Cl)ncn3)cc2)CC1 [NVP-BGJ398]	0.763	-0.197	0.66	0.41
CCOc1cc2ncc(C#N)c(Nc3ccc(OCc4ccccn4)c(Cl)c3)c2cc1NC(=O)/C=C/CN(C)C [Neratinib]	1.97	2.52	0.927	0.98

SMILES	ΔTm at 12.5 µM (BIKE) [°C]	ΔTm at 12.5 µM (GAK) [°C]	ΔTm at 12.5 µM (MPSK1) [°C]	ΔTm at 12.5 µM (AAK1) [°C]
Cc1cn(-c2cc(NC(=O)c3ccc(C)c(Nc4nccc(-c5cccnc5)n4)c3)cc(C(F)(F)F)c2)cn1 [Nilotinib]	1.06	5.36	2.48	1.13
COc1cccc2cc(-c3nc([C@H]4CC[C@H](C(=O)O)CC4)n4ncnc(N)c34)[nH]c12 [OSI-027]	0.31	-0.547	0.92	0.0767
Cc1[nH]c(/C=C2\C(=O)Nc3ccccc32)c(C)c1CCC(=O)O [Orantinib]	12	3.99	5.87	6.55
CN(c1ccccc1CNc1nc(Nc2ccc3c(c2)CC(=O)N3)ncc1C(F)(F)F)S(C)(=O)=O [PF 431396]	9.5	5.02	13.9	4.81
Cn1cc(-c2[nH]c3cc(NC(=O)[C@H](N)C4CCCCC4)cc4c3c2C=NNC4=O)cn1 [PF-00477736]	19.1	9.49	6.45	17.8
Nc1nccc(-c2c(-c3ccc(F)cc3)ncn2C2CCCCC2)n1 [PF-670462]	1.04	6.13	1.83	1.68
Cc1nc(Nc2n[nH]c3c2CN(C(=O)N[C@H](CN(C)C)c2ccccc2)C3(C)C)c2sccc2n1 [PF-03758309]	10.6	4.73	8.65	5.65
COc1ccc(-c2cc3c(C)nc(N)nc3n([C@H]3CC[C@H](OCCO)CC3)c2=O)cn1 [PF-04691502]	0.623	-0.593	1.43	0.327
CCc1cncnc1N1CCN(Cc2nc3ccc(C(F)(F)F)cc3[nH]2)CC1 [PF-04708671]	0.45	-0.243	1.04	0.437
Nc1ncnc2c1c(COc1cccc(Cl)c1)nn2C1CCOCC1 [PF-4800567]	0.437	-0.663	0.933	0.283
Cc1ccc([N+](=O)[O-])cc1S(=O)(=O)N(C)/N=C/c1cnc2ccc(Br)cn12 [PIK-75]	7.9	3.07	9.97	5
CC(=O)c1c(C)c2cnc(Nc3ccc(N4CCNCC4)cn3)nc2n(C2CCCC2)c1=O [Palbociclib]	5.02	0.733	7.72	2.94
Cc1ccc(Nc2nccc(N(C)c3ccc4c(C)n(C)nc4c3)n2)cc1S(N)(=O)=O [Pazopanib]	7.25	2.72	7.31	3.85
COc1ccc(Cl)c(Nc2nc3ccccc3nc2NS(=O)(=O)c2cccc(NC(=O)C(C)(C)N)c2)c1 [Pilaralisib]	0.99	-0.55	0.39	0.00667
O=C(NC[C@H](O)CO)c1ccncc1Nc1ccc(I)cc1F [Pimasertib]	0.36	-0.59	0.313	0.0267
Cc1ccc(C(=O)Nc2ccc(CN3CCN(C)CC3)c(C(F)(F)F)c2)cc1C#Cc1cnc2cccnn12 [Ponatinib]	2.93	13	2.24	2.99
CC(C)(C)c1cc(NC(=O)Nc2ccc(-c3cn4c(n3)sc3cc(OCCN5CCOCC5)ccc34)cc2)no1 [Quizartinib]	0.54	0.0333	0.333	0.43
